Results as given in patent US20130089601A1, “METHOD FOR TREATING ATHEROSCLEROSIS” (KAOHSIUNG MEDICAL UNIVERSITY, priority 2009, published 2013).

Tests used:
apoE−/− mice = test system: apoE−/− mice
Description: Lentivector Expression System was purchased from System Biosciences. The microRNA expression vectors pCDH-CMV-MCS-EF1- GreenPuro vector (System Biosciences, SBI) contain a CMV-driven EGFP reporter. The full length sequence of microRNA-195 was amplified from genomic DNA by polymerase chain reaction (PCR). Primer pairs for microRNA expression vectors were microRNA-195 forward: 5′-[…]-3′ (SEQ ID NO: 3), and reverse: 5′-[…]-3′ (SEQ ID NO: 4). The PCR products were inserted to the microRNA expression vectors. The clones carrying microRNA-195 was named pCDH-miR-195. The pCDH vector was used as control.
The miRNA expression vectors (pCDH-miR-195 and pCDH mock vector) and Lentivirus Package plasmid mix (System Biosciences, SBI) were cotransfected into 293TN cells with PureFection™ Transfection Reagent (System Biosciences; Mountain View, Calif., USA), and Lenti-X Concentrator (Clontech, USA) was used for concentration. Infectious titers were determined by counting GFP positive-293T cells using a fluorescence microscope.
0.1 ml PBS with 10^7 IFU Lentivirus containing pCDH-miR-195 or a control vector was injected to the tail veil of the apoE−/− mice that were under a high fat diet. The injection was repeated once a week for a total of 12 weeks. Changes in body weight of the apoE−/− mice treated with Lentivirus containing pCDH-miR-195 (the microRNA-195 treatment group) and the apoE−/− mice treated with Lentivirus containing the control vector (the control group) were recorded every week and are shown in FIG. 7. When the experiment was completed, the mice of the microRNA-195 treatment group and the mice of the control group were sacrificed.
Biochemical indexes, such as blood urea nitrogen (BUN) and creatinine (CRE) for renal function, GOT (AST) and GPT (ALT) for liver function, fasting blood sugar (GLU), total cholesterol (T-CHO), high density lipoprotein (HDL), low density lipoprotein (LDL) and triglyceride (TG) of the blood of mice of the microRNA-195 treatment group and mice of the control group were determined and are shown in Table 2, respectively. Indexes for weight of various organs to body weight (organ weight/body weight) of mice of the microRNA-195 treatment group and the mice of the control group were determined and are shown in Table 3, respectively.

[1] = test system: THP-1 cells adherent to HUVEC; test: In vitro adhesion assay of THP-1 cells to HUVEC co-cultured with transfected HASMCs; assay type: cell-based, human; details: in the presence of ox-LDL, vs NC-miR
Description: MicroRNA-195 mimic, microRNA-195 inhibitor and negative control microRNA (NC-miR) were purchased from Ambion Inc. (TX, USA) with the sequences information shown as microRNA-195 mimic, 5′-[…]-3′ (SEQ ID NO: 5); microRNA-195 inhibitor, 5′-[…]-3′ (SEQ ID NO: 6); negative control sequence, 5′-AGUACUGCUUACGAUACGG-3′ (SEQ ID NO: 7). MicroRNA -195 inhibitor was used to specifically bind to and inhibit endogenous microRNA-195. The NC-miR is a random sequence pre-miR molecule that has been extensively tested in human cell lines and tissues and validated to produce no identifiable effects on known miRNA function. […]
At first, human aorta smooth muscle cells (HASMCs) were seeded on the inner side of Millicell® with the PET membrane (Millipore, Hanging 24-well cell culture inserts) at a density of 3×10^5 cells/cm^2 and transfected with microRNA-195 mimic mimic by using lipofectamine2000 for 24 hours. […] Then 4 ml of new culture medium was put in each dish and they were incubated overnight at 37° C. in 5% CO2 and 95% air humidified atmosphere to get ready for use in adhesion experiments of THP-1 cells.
To visualize the THP-1 cells adherent to the HUVEC-HASMC co-culture, the THP-1 cells were labeled with a fluorescent dye, calcein-AM. Fluorescence-labeled cells were resuspended in 4 ml of IMDM containing 10% FCS and prepared for use in adhesion experiments. […]

TNF-a = test: Real-time qPCR of TNF-a mRNA in HUVECs co-cultured with transfected HASMCs; assay type: cell-based, human; details: co-cultured with microRNA-195-transfected HASMCs
Procedure: (§1) HASMCs were transfected with negative control microRNA or microRNA-195 with or without the presence of oxLDL. MicroRNA-195-transfected HASMCs were co-cultured with HUVEC. Real-time qPCR analysis of mRNA levels for genes surrogating endothelial functions as well as atherosclerosis, such as vascular cell adhesion molecule-1 (VCAM-1), […] (TNF-a) and interleukin-6 (IL-6), and vasodilation gene, endothelial nitric oxide synthase (eNOS), were determined in HUVECs.

IL-6 = test: Real-time qPCR of IL-6 mRNA in HUVECs co-cultured with transfected HASMCs; assay type: cell-based, human; details: co-cultured with microRNA-195-transfected HASMCs
Procedure: as §1

eNOS = test: Real-time qPCR of eNOS mRNA in HUVECs co-cultured with transfected HASMCs; assay type: cell-based, human; details: co-cultured with microRNA-195-transfected HASMCs
Procedure: as §1

[2] = Lentivirus containing pCDH-miR-195, 12 weeks, high fat diet
[3] = Lentivirus containing pCDH-miR-195 vs control group, from Table 2
[4] = blood, Lentivirus containing pCDH-miR-195 10^7 IFU tail vein weekly, 12 weeks, high fat diet

microRNA-195: Pre-miR miRNA, hsa-miR-195 (product ID PM10827), Ambion Inc., which mimics precursor for mature human miR-195; mimic 5′-UAGCAGCACAGAAAUAUUGGC-3′ (SEQ ID NO: 5) (chemistry not given here)
Heart weight/body weight, average (apoE−/− mice; [2]): 0.49% | Kidney weight/body weight, average (apoE−/− mice; [2]): 1.20% | Liver weight/body weight, average (apoE−/− mice; [2]): 3.35% | Lung weight/body weight, average (apoE−/− mice; [2]): 0.72% | Spleen weight/body weight, average (apoE−/− mice; [2]): 0.32% | HDL increase (apoE−/− mice; [3]): 77% | triglyceride decrease (apoE−/− mice; [3]): 26% | blood sugar level versus placebo treated animals (apoE−/− mice; Lentivirus containing pCDH-miR-195 vs control vector, high-fat diet): lower | control of the increase of body weight (apoE−/− mice; Lentivirus containing pCDH-miR-195 vs control vector, high-fat diet, 12 weeks): better than the placebo | BUN (blood urea nitrogen), average (apoE−/− mice; [4]): 21.5 | CRE (creatinine), average (apoE−/− mice; [4]): 0.7 | GLU (fasting blood sugar), average (apoE−/− mice; [4]): 166.5 | GOT (AST), average (apoE−/− mice; [4]): 118.5 | GPT (ALT), average (apoE−/− mice; [4]): 28.5 | HDL (high density lipoprotein), average (apoE−/− mice; [4]): 11.5 | T-CHO (total cholesterol), average (apoE−/− mice; [4]): 711.5 | TG (triglyceride), average (apoE−/− mice; [4]): 141 | THP-1 cells adhering to HUVEC [1]: fewer | TNF-a mRNA level in HUVECs (TNF-a): suppresses | IL-6 mRNA level in HUVECs (IL-6): suppresses | eNOS mRNA level in HUVECs (eNOS): increases
